Usually pIC50 stands for the IC50 on a negative log10 scale, so that one unit is a factor of ten.

The values that follow come from US20090062291A1, “PHOSPHODIESTERASE 10 INHIBITORS” (priority 2007, published 2009).

pIC50: −log10 of the molar value.

For the assay, the target named is T1, mPDE10A7 (Mus musculus, UniProt Q8CA95).
T1 sequence (Q8CA95 446-763 limits assumed): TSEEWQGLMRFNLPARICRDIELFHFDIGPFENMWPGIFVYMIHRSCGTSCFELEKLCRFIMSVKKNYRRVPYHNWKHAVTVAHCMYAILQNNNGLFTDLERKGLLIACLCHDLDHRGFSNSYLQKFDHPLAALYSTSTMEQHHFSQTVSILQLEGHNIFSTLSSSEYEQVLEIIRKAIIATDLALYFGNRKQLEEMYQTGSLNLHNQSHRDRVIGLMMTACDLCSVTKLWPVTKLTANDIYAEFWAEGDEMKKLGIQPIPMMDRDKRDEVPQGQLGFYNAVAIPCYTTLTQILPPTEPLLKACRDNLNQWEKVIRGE
The assay is described as follows: mPDE10A7 enzyme inhibition (IMAP fluorescence polarization). To be noted: fluorescein labeled cAMP or cGMP substrate, 30 min at room temperature. Type of assay: biochemical. How it is done: Enzyme Activity. To analyze the enzyme activity, 5 μL of serial diluted mPDE10A7 containing lysate were incubated with equal volumes of diluted (100-fold) fluorescein labeled cAMP or cGMP for 30 min in MDC HE 96-well assay plates (Molecular Devices Corp., Sunnyvale Calif.) at room temperature. Both the enzyme and the substrates were diluted in the following assay buffer: Tris/HCl (pH 8.0) 50 mM, MgCl2 5 mM, 2-mercaptoethanol 4 mM, and BSA 0.33 mg/mL. After incubation, the reaction was stopped by adding 20 μL of diluted (400-fold) binding reagents and was incubated for an hour at room temperature. The plates were counted in an Analyst GT (Molecular Devices) for fluorescence polarization. An IMAP assay kit (Molecular Devices) was used to assess enzyme properties of mPDE10A7. Data were analyzed with SOFTMAX PRO software (Molecular Devices).
Enzyme Inhibition. To check the inhibition profile, 10 μL of serial diluted compounds were incubated with 30 μl of diluted PDE enzymes in a 96-well polystyrene assay plate for 30 min at room temperature. After incubation, 5 μL of the compound-enzyme mixture were aliquoted into a MDC HE black plate, mixed with 5 μL of 100-fold diluted fluorescein labeled substrates (cAMP or cGMP), and incubated for 30 min at room temperature. The reaction was stopped by adding 20 μL of diluted binding reagents and counted in an Analyst GT for fluorescence polarization. The data were analyzed with SoftMax Pro.
The IC50 values of a representative number of compounds of the invention in the above assay are as follows: […]
The compound `COc1cc2nncc(-c3ccc(NC4CCCc5ncccc54)nc3)c2cc1OC` (stereo not shown) [Cpd 5] gave a pIC50 of 8.64. Under `COc1cc2nncc(-c3ccc(NC4CCc5cccc(OC)c5C4)nc3)c2cc1OC` (stereo not shown) [Cpd 14] stands 6.84. In the case of `COc1cc2nncc(-c3cnc(N4CCC(O)(c5cccnc5)CC4)c(C4CC4)c3)c2cc1OC` [Cpd 15], the pIC50 was 9.70. Next, `COc1cc2nncc(-c3ccc(N[C@H]4CCCc5c(Br)cccc54)nc3)c2cc1OC` [Cpd 11]: 6.59. Next, `COc1cc2nncc(-c3cnc(NC(C)C)c(C#N)c3)c2cc1OC` [Cpd 25]: 7.92.

Regarding `COc1cc2nncc(-c3cnc(N4CCC(C(C)(C)O)CC4)c(C4CC4)c3)c2cc1OC` [Cpd 1, 2-(1-(3-cyclopropyl-5-(6,7-dimethoxycinnolin-4-yl)pyridin-2-yl)piperidin-4-yl)propan-2-ol], the pIC50 was 8.96. Next, `COc1cc2nncc(-c3ccc(NC4CCOc5ccccc54)nc3)c2cc1OC` (stereo not shown) [Cpd 8]: 7.92; `COc1cc2nncc(-c3ccc(N[C@@H]4CCCc5ncccc54)nc3)c2cc1OC` [Cpd 6]: 8.59; `C=Cc1cc(-c2cnnc3cc(OC)c(OC)cc23)cnc1NC(C)C` [Cpd 22]: 8.77.

`COc1cc2nncc(-c3cnc(NC(C)C)c(C(N)=O)c3)c2cc1OC` [Cpd 26]: the pIC50 was 8.05.
